# In USRE48461E1, “Modulation of androgen receptor expression” (Ionis Pharmaceuticals, Inc., priority 2012, dated 2021):
# Oligonucleotides are written 5' to 3', each unit as a sugar letter and its base; * is a phosphorothioate linkage, no mark a phosphodiester; rarer units and linkages stand in square brackets, end groups in braces. Plain capitals give the bases only. e = 2'-O-(2-methoxyethyl) (MOE); k = constrained ethyl (cEt); [5mC] = 5-methylcytosine; d = 2'-deoxy (DNA)
# Columns and labels:
# AR mRNA [1] = test: Dose-dependent antisense inhibition of human AR in HuVEC cells (electroporation, qRT-PCR RTS3559, IC50); assay type: cell-based; conditions: HuVEC
# In short: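 HuVEC cells dosed with antisense oligonucleotides by electroporation and treated approximately 16 hours. AR mRNA quantified by real-time qPCR with primer probe set RTS3559 and normalised to total RNA by RIBOGREEN; IC50 from dose-response.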
# AR mRNA [2] = test: Antisense inhibition of human AR in HuVEC cells, single concentration (electroporation, qRT-PCR RTS3559); assay type: cell-based
# In short: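 AR mRNA levels were measured with human primer-probe set RTS3559 and adjusted for total RNA (RIBOGREEN). Cells were HuVEC, with each antisense oligonucleotide delivered by electroporation at one concentration.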
# [3] = Table 31, electroporation, approximately 16 hours
# [4] = Table 34, electroporation, approximately 16 hours
# [5] = Table 32, electroporation, approximately 16 hours
# [6] = Table 30, electroporation, approximately 16 hours
substance,measurement,setting,value
560098 (kT*kG*kA*dT*dT*dT*dA*dA*dT*dG*dG*dT*dT*kG*k[5mC]*kA; further chemistry not given here) [compound 560098],percent inhibition of AR,"AR mRNA [1]; 31.25 nM, ~16 h, Table 6",20%
same,percent inhibition of AR,"AR mRNA [1]; 31.25 nM, ~16 h, Table 8",30%
same,percent inhibition of AR,"AR mRNA [1]; 62.5 nM, ~16 h, Table 6",41%
same,percent inhibition of AR,"AR mRNA [1]; 62.5 nM, ~16 h, Table 8",54%
same,percent inhibition of AR,"AR mRNA [1]; 125.0 nM, ~16 h, Table 6",64%
same,percent inhibition of AR,"AR mRNA [1]; 125.0 nM, ~16 h, Table 8",65%
same,percent inhibition of AR,"AR mRNA [1]; 500.0 nM, ~16 h, Table 6",94%
same,percent inhibition of AR,"AR mRNA [1]; 500.0 nM, ~16 h, Table 8",89%
same,percent inhibition of AR,"AR mRNA [1]; 1000.0 nM, ~16 h, Table 6",94%
same,percent inhibition of AR,"AR mRNA [1]; 1000.0 nM, ~16 h, Table 8",97%
same,IC50,"AR mRNA [1]; ~16 h, Table 6",100 nM
same,IC50,"AR mRNA [1]; ~16 h, Table 8",70 nM
same,% inhibition,"AR mRNA [2]; 250 nM ASO, ~24 h, Table 7",69%
same,% inhibition,"AR mRNA [2]; 500 nM ASO, ~24 h, Table 5",99%
583746 (antisense kT*kG*k[5mC]*dG*d[5mC]*dT*d[5mC]*dG*d[5mC]*dG*dG*d[5mC]*d[5mC]*kT*k[5mC]*kT) [compound 583746],"percent inhibition of AR, 46.9 nM",AR mRNA [1]; [3],24%
same,"percent inhibition of AR, 187.5 nM",AR mRNA [1]; [3],44%
same,"percent inhibition of AR, 750.0 nM",AR mRNA [1]; [3],65%
same,"percent inhibition of AR, 3000.0 nM",AR mRNA [1]; [3],67%
same,IC50,AR mRNA [1]; [3],350 nM
same,% inhibition,"AR mRNA [2]; 500 nM ASO, ~24 h, Table 18",32%
584006 (kA*k[5mC]*kA*d[5mC]*dA*dA*dG*dT*dG*dG*dG*dA*d[5mC]*kT*kG*kG; antisense) [compound 584006],"percent inhibition of AR, 46.9 nM",AR mRNA [1]; [4],21%
same,"percent inhibition of AR, 187.5 nM",AR mRNA [1]; [4],26%
same,"percent inhibition of AR, 750.0 nM",AR mRNA [1]; [4],59%
same,"percent inhibition of AR, 3000.0 nM",AR mRNA [1]; [4],88%
same,IC50,AR mRNA [1]; [4],350 nM
same,% inhibition,"AR mRNA [2]; Table 22, 500 nM oligonucleotide, electroporation, approximately 24 hours, relative to untreated control",33%
560071 (eT*eG*eG*eT*eT*dG*dA*dT*dT*dT*dA*dA*dT*dG*dG*eT*eT*eG*e[5mC]*eA) [compound 560071],percent inhibition of AR,"AR mRNA [1]; 31.25 nM, ~16 h, Table 6",7%
same,percent inhibition of AR,"AR mRNA [1]; 62.5 nM, ~16 h, Table 6",0%
same,percent inhibition of AR,"AR mRNA [1]; 125.0 nM, ~16 h, Table 6",19%
same,percent inhibition of AR,"AR mRNA [1]; 500.0 nM, ~16 h, Table 6",57%
same,percent inhibition of AR,"AR mRNA [1]; 1000.0 nM, ~16 h, Table 6",76%
same,IC50,"AR mRNA [1]; ~16 h, Table 6",400 nM
same,% inhibition,"AR mRNA [2]; 500 nM ASO, ~24 h, Table 5",73%
583802 (antisense k[5mC]*kT*k[5mC]*dG*d[5mC]*dT*d[5mC]*dT*d[5mC]*d[5mC]*d[5mC]*dG*d[5mC]*kT*kG*k[5mC]) [compound 583802],"percent inhibition of AR, 46.9 nM",AR mRNA [1]; [5],17%
same,"percent inhibition of AR, 187.5 nM",AR mRNA [1]; [5],25%
same,"percent inhibition of AR, 750.0 nM",AR mRNA [1]; [5],47%
same,"percent inhibition of AR, 3000.0 nM",AR mRNA [1]; [5],60%
same,IC50,AR mRNA [1]; [5],1070 nM
same,% inhibition,"AR mRNA [2]; Table 19, 500 nM oligonucleotide, electroporation, approximately 24 hours, relative to untreated control",37%
549332 (kG*k[5mC]*kG*d[5mC]*dT*d[5mC]*dT*dG*dA*d[5mC]*dA*dG*d[5mC]*k[5mC]*kT*k[5mC]; antisense) [compound 549332],percent inhibition of AR,"AR mRNA [1]; 55.6 nM, ~16 h, Table 4",35%
same,percent inhibition of AR,"AR mRNA [1]; 166.7 nM, ~16 h, Table 4",57%
same,percent inhibition of AR,"AR mRNA [1]; 500.0 nM, ~16 h, Table 4",79%
same,percent inhibition of AR,"AR mRNA [1]; 1500.0 nM, ~16 h, Table 4",79%
same,IC50,"AR mRNA [1]; ~16 h, Table 4",104 nM
same,% inhibition,"AR mRNA [2]; 500 nM ASO, electroporation, ~24 h, Table 1",84%
583712 (antisense k[5mC]*k[5mC]*kT*dT*dG*dA*dG*d[5mC]*dT*dT*dG*dG*d[5mC]*kT*kG*kA) [compound 583712],"percent inhibition of AR, 46.9 nM",AR mRNA [1]; [6],15%
same,"percent inhibition of AR, 187.5 nM",AR mRNA [1]; [6],47%
same,"percent inhibition of AR, 750.0 nM",AR mRNA [1]; [6],72%
same,"percent inhibition of AR, 3000.0 nM",AR mRNA [1]; [6],78%
same,IC50,AR mRNA [1]; [6],290 nM
same,% inhibition,"AR mRNA [2]; 500 nM ASO, ~24 h, Table 18",37%
569223 (antisense eG*eT*kT*kG*kA*dT*dT*dT*dA*dA*dT*dG*dG*kT*kT*kG) [compound 569223],percent inhibition of AR,"AR mRNA [1]; 31.25 nM, ~16 h, Table 14",21%
same,percent inhibition of AR,"AR mRNA [1]; 62.5 nM, ~16 h, Table 14",20%
same,percent inhibition of AR,"AR mRNA [1]; 125.0 nM, ~16 h, Table 14",30%
same,percent inhibition of AR,"AR mRNA [1]; 500.0 nM, ~16 h, Table 14",73%
same,percent inhibition of AR,"AR mRNA [1]; 1000.0 nM, ~16 h, Table 14",87%
same,IC50,"AR mRNA [1]; ~16 h, Table 14",191 nM
same,% inhibition,"AR mRNA [2]; 1,000 nM ASO, ~24 h, Table 13",59%
583727 (antisense kG*kA*kT*dT*d[5mC]*dT*dG*dG*dA*dA*dA*dG*d[5mC]*kT*k[5mC]*k[5mC]) [compound 583727],"percent inhibition of AR, 46.9 nM",AR mRNA [1]; [6],18%
same,"percent inhibition of AR, 187.5 nM",AR mRNA [1]; [6],49%
same,"percent inhibition of AR, 750.0 nM",AR mRNA [1]; [6],70%
same,"percent inhibition of AR, 3000.0 nM",AR mRNA [1]; [6],76%
same,IC50,AR mRNA [1]; [6],290 nM
same,% inhibition,"AR mRNA [2]; 500 nM ASO, ~24 h, Table 18",40%
